Inconclusive results and toxic doses are left out. Cut-off read from the data, not from the text of the source: active = T/C of 150% or more; inactive = T/C below 125%. Square brackets hold non-standard residues; d marks the D form. Peptide text beside a SMILES is read from it. * marks the point of attachment. ξ: configuration not given here. ξE = NC(CCC(=O)O)C(=O)O; Cbz = O=C(OCc1ccccc1)*
System: L1210 leukemia ip in BDF1 mice, survival T/C
Test: NCI In Vivo Anticancer Drug Screen. Data for tumor model L1210 Leukemia (intraperitoneal) in B6D2F1 (BDF1) mice
Settings: endpoint: mean survival time, higher = longer survival
Outline: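 Each compound was tested against a transplantable tumor grown in mice. The endpoint was survival, with treated animals benchmarked against vehicle controls as a simple ratio.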

[1] = dose: 100.0 mg/kg/injection, schedule: Q01DX009 (ip), vehicle: Klucel (hydroxypropylcellulose) (HPC)
[2] = dose: 200.0 mg/kg/injection, schedule: Q01DX009 (ip), vehicle: Klucel (hydroxypropylcellulose) (HPC)

Measured: T/C

O=C(O)CCC(NC(=O)OCc1ccccc1)C(=O)NCC(=O)O (stereo not given) (Cbz-[ξE]-Gly-OH)
inactive: dose: 12.5 mg/kg/injection, schedule: Q04DX002 (ip), vehicle: saline 95 % of control | dose: 25.0 mg/kg/injection, schedule: Q04DX002 (ip), vehicle: saline 92 % of control | dose: 50.0 mg/kg/injection, schedule: Q04DX002 (ip), vehicle: saline 100 % of control

C(C=C(c1ccccc1)c1ccccc1)=C(c1ccccc1)c1ccccc1
inactive: dose: 100.0 mg/kg/injection, schedule: Q04DX003 (ip), vehicle: saline with Tween-80 97 % of control | dose: 200.0 mg/kg/injection, schedule: Q04DX003 (ip), vehicle: saline with Tween-80 90 % of control | dose: 400.0 mg/kg/injection, schedule: Q04DX003 (ip), vehicle: saline with Tween-80 92 % of control

CC(=O)OC1C2C=CC(C2)C1OC(C)=O (stereo not given)
inactive: dose: 100.0 mg/kg/injection, schedule: Q01DX001 (ip), vehicle: other 100 % of control | dose: 200.0 mg/kg/injection, schedule: Q01DX001 (ip), vehicle: other 106 % of control | dose: 400.0 mg/kg/injection, schedule: Q01DX001 (ip), vehicle: other 112 % of control

CCCCCCCCP(=O)(N1CC1)N1CC1
inactive: dose: 5.0 mg/kg/injection, schedule: Q01DX Z (ip), vehicle: carboxymethylcellulose (CMC) 107 % of control | dose: 6.25 mg/kg/injection, schedule: Q01DX Z (ip), vehicle: carboxymethylcellulose (CMC) 98 % of control | dose: 10.0 mg/kg/injection, schedule: Q01DX Z (ip), vehicle: carboxymethylcellulose (CMC) 102 % of control | dose: 12.5 mg/kg/injection, schedule: Q01DX Z (ip), vehicle: carboxymethylcellulose (CMC) 110 % of control | dose: 20.0 mg/kg/injection, schedule: Q01DX Z (ip), vehicle: carboxymethylcellulose (CMC) 110 % of control | dose: 25.0 mg/kg/injection, schedule: Q01DX Z (ip), vehicle: carboxymethylcellulose (CMC) 113 % of control | dose: 40.0 mg/kg/injection, schedule: Q01DX Z (ip), vehicle: carboxymethylcellulose (CMC) 117 % of control | dose: 50.0 mg/kg/injection, schedule: Q01DX Z (ip), vehicle: carboxymethylcellulose (CMC) 120 % of control

CNC(=O)Nc1cc(OC)ccc1OC
inactive: [1] 106 % of control | [2] 98 % of control | dose: 400.0 mg/kg/injection, schedule: Q01DX009 (ip), vehicle: Klucel (hydroxypropylcellulose) (HPC) 107 % of control

COCn1cnc2c(F)ncnc21
inactive: dose: 6.25 mg/kg/injection, schedule: Q01DX009 (ip), vehicle: saline 94 % of control | dose: 6.25 mg/kg/injection, schedule: Q04DX003 (ip), vehicle: saline 101 % of control | dose: 12.5 mg/kg/injection, schedule: Q01DX009 (ip), vehicle: saline 100 % of control | dose: 12.5 mg/kg/injection, schedule: Q04DX003 (ip), vehicle: saline 104 % of control | dose: 25.0 mg/kg/injection, schedule: Q01DX009 (ip), vehicle: saline 101 % of control | dose: 25.0 mg/kg/injection, schedule: Q04DX003 (ip), vehicle: saline 102 % of control

CCN1CCCC(Nc2nc(Nc3cc(Cl)cc(Cl)c3)nc3cc(Cl)ccc23)C1 (stereo not given)
inactive: dose: 100.0 mg/kg/injection, schedule: Q04DX003 (ip), vehicle: saline sonified 95 % of control | dose: 200.0 mg/kg/injection, schedule: Q04DX003 (ip), vehicle: saline sonified 97 % of control | dose: 400.0 mg/kg/injection, schedule: Q04DX003 (ip), vehicle: saline sonified 106 % of control

O=C(NO)C(=O)NO
inactive: dose: 50.0 mg/kg/injection, schedule: Q01DX009 (ip), vehicle: saline 98 % of control | dose: 100.0 mg/kg/injection, schedule: Q01DX009 (ip), vehicle: saline 113 % of control | dose: 100.0 mg/kg/injection, schedule: Q04DX002 (ip), vehicle: saline with Tween-80 90 % of control | dose: 200.0 mg/kg/injection, schedule: Q01DX009 (ip), vehicle: saline 117 % of control | dose: 200.0 mg/kg/injection, schedule: Q04DX002 (ip), vehicle: saline with Tween-80 107 % of control | dose: 400.0 mg/kg/injection, schedule: Q04DX002 (ip), vehicle: saline with Tween-80 110 % of control

CCC(C)C(C(=O)OCCN(CC)CC)c1ccccc1 (stereo not given)
inactive: dose: 50.0 mg/kg/injection, schedule: Q01DX009 (ip), vehicle: Klucel (hydroxypropylcellulose) (HPC) 95 % of control | [1] 97 % of control | dose: 100.0 mg/kg/injection, schedule: Q04DX003 (ip), vehicle: Klucel (hydroxypropylcellulose) (HPC) 96 % of control | [2] 104 % of control | dose: 200.0 mg/kg/injection, schedule: Q04DX003 (ip), vehicle: Klucel (hydroxypropylcellulose) (HPC) 91 % of control

CC1(C(O)(c2ccccc2)c2ccccc2)CC1
inactive: dose: 25.0 mg/kg/injection, schedule: Q04DX002 (sc), vehicle: olive oil, sesame oil, peanut oil 109 % of control | dose: 50.0 mg/kg/injection, schedule: Q04DX002 (sc), vehicle: olive oil, sesame oil, peanut oil 97 % of control | dose: 100.0 mg/kg/injection, schedule: Q04DX002 (sc), vehicle: olive oil, sesame oil, peanut oil 106 % of control

CCc1c(Nc2ccccc2Cl)[nH]c(N)nc1=S
inactive: dose: 100.0 mg/kg/injection, schedule: Q01DX Z (ip), vehicle: methylcellulose (MC) 97 % of control | dose: 200.0 mg/kg/injection, schedule: Q01DX Z (ip), vehicle: methylcellulose (MC) 97 % of control
